From PubChem BioAssay AID1259411 (Chemical Carcinogenesis Research Information System (CCRIS), 2018)
Calls of active or inactive are those of the source. The rule behind the calls is not given here.

Tested on: rodent carcinogenicity bioassays, tumor incidence
Assay: CCRIS carcinogenicity studies
How it was run: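 Archive of carcinogenicity, mutagenicity, tumor promotion and tumor inhibition results drawn from journals, NCI reports and other sources, expert-reviewed; covers 1985-2011 and is no longer updated.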

CN(N=O)C(=O)NCCC[C@H](N)C(=O)O
carcinogen call (Species: HAMSTER, Strain/Sex: SYRIAN/FEMALE, Route: INTRAPERITONEAL, Dose: 218, 654 MG/KG 1/WK FOR 12 WK (LOW DOSE) OR 6 WK (HIGH DOSE), Tumor Site: Type of Lesion: PANCREAS: CARCINOMA, CARCINOMA (IN SITU), PERITONEAL CAVITY: MESOTHELIOMA;MAMMARY GLAND: CARCINOMA, STOMACH: PAPILLOMA,, Tumor Site: Type of Lesion: PANCREAS: CARCINOMA, CARCINOMA (IN SITU), PERITONEAL CAVITY: MESOTHELIOMA;MAMMARY GLAND: CARCINOMA, STOMACH: PAPILLOMA): active; positive
carcinogen call (Species: HAMSTER, Strain/Sex: SYRIAN/MALE, Route: INTRAPERITONEAL, Dose: 218, 654 MG/KG 1/WK FOR 12 WK (LOW DOSE) OR 6 WK (HIGH DOSE), Tumor Site: Type of Lesion: PANCREAS: CARCINOMA, CARCINOMA (IN SITU), STOMACH: PAPILLOMA): active; positive

O=C(CCl)c1ccccc1
carcinogen call (Species: MOUSE, Strain/Sex: B6C3F1/FEMALE, Route: INHALATION, Dose: 0, 2, 4 MG/M3 6 HR/D 5 D/WK FOR 103 WK (STUDY DURATION: 105 WK), Dose: 0, 2, 4 MG/M3 6 HR/D 5 D/WK FOR 103 WK (STUDY DURATION: 105 WK)): inactive; negative
carcinogen call (Species: MOUSE, Strain/Sex: B6C3F1/MALE, Route: INHALATION, Dose: 0, 2, 4 MG/M3 6 HR/D 5 D/WK FOR 103 WK (STUDY DURATION: 105 WK), Dose: 0, 2, 4 MG/M3 6 HR/D 5 D/WK FOR 103 WK (STUDY DURATION: 105 WK)): inactive; negative
carcinogen call (Species: RAT, Strain/Sex: F344/FEMALE, Route: INHALATION, Dose: 0, 1, 2 MG/M3 6 HR/D 5 D/WK FOR 103 WK (STUDY DURATION: 105 WK), Dose: 0, 1, 2 MG/M3 6 HR/D 5 D/WK FOR 103 WK (STUDY DURATION: 105 WK), Tumor Site: Type of Lesion: MAMMARY GLAND: FIBROADENOMA): equivocal
carcinogen call (Species: RAT, Strain/Sex: F344/MALE, Route: INHALATION, Dose: 0, 1, 2 MG/M3 6 HR/D 5 D/WK FOR 103 WK (STUDY DURATION: 105 WK), Dose: 0, 1, 2 MG/M3 6 HR/D 5 D/WK FOR 103 WK (STUDY DURATION: 105 WK)): inactive; negative

[P]#[In]
carcinogen call (Species: MOUSE, Strain/Sex: B6C3F1/FEMALE, Route: INHALATION, Dose: 0, 0.03, 0.1, 0.3 MG/M3 AEROSOL FOR 6 HR/D 5 D/WK FOR 105 WK (CONTROL AND LOW DOSE GROUPS) OR 21 WK (MID AND HIGH DOSE G, Dose: 0, 0.03, 0.1, 0.3 MG/M3 AEROSOL FOR 6 HR/D 5 D/WK FOR 105 WK (CONTROL AND LOW DOSE GROUPS) OR 21 WK (MID AND HIGH DOSE G, Tumor Site: Type of Lesion: LIVER: HEPATOCELLULAR ADENOMA, HEPATOCELLULAR CARCINOMA, HEPATOCELLULAR ADENOMA OR CARCINOMA, LUNG: ALVEOLAR/BRONCHIOLAR): active; positive
carcinogen call (Species: MOUSE, Strain/Sex: B6C3F1/MALE, Route: INHALATION, Dose: 0, 0.03, 0.1, 0.3 MG/M3 AEROSOL FOR 6 HR/D 5 D/WK FOR 105 WK (CONTROL AND LOW DOSE GROUPS) OR 21 WK (MID AND HIGH DOSE G, Dose: 0, 0.03, 0.1, 0.3 MG/M3 AEROSOL FOR 6 HR/D 5 D/WK FOR 105 WK (CONTROL AND LOW DOSE GROUPS) OR 21 WK (MID AND HIGH DOSE G, Tumor Site: Type of Lesion: LIVER: HEPATOCELLULAR ADENOMA, HEPATOCELLULAR CARCINOMA, HEPATOCELLULAR ADENOMA OR CARCINOMA, LUNG: ALVEOLAR/BRONCHIOLAR): active; positive
carcinogen call (Species: RAT, Strain/Sex: F344/FEMALE, Route: INHALATION, Dose: 0, 0.03, 0.1, 0.3 MG/M3 AEROSOL FOR 6 HR/D 5 D/WK FOR 105 WK (CONTROL AND LOW DOSE GROUPS) OR 22 WK (MID AND HIGH DOSE G, Dose: 0, 0.03, 0.1, 0.3 MG/M3 AEROSOL FOR 6 HR/D 5 D/WK FOR 105 WK (CONTROL AND LOW DOSE GROUPS) OR 22 WK (MID AND HIGH DOSE G, Tumor Site: Type of Lesion: ADRENAL MEDULLA: BENIGN PHEOCHROMOCYTOMA, LUNG: ALVEOLAR/BRONCHIOLAR ADENOMA, ALVEOLAR/BRONCHIOLAR CARCINOMA, ALVEOLAR/B): active; positive
carcinogen call (Species: RAT, Strain/Sex: F344/MALE, Route: INHALATION, Dose: 0, 0.03, 0.1, 0.3 MG/M3 AEROSOL FOR 6 HR/D 5 D/WK FOR 105 WK (CONTROL AND LOW DOSE GROUPS) OR 22 WK (MID AND HIGH DOSE G, Dose: 0, 0.03, 0.1, 0.3 MG/M3 AEROSOL FOR 6 HR/D 5 D/WK FOR 105 WK (CONTROL AND LOW DOSE GROUPS) OR 22 WK (MID AND HIGH DOSE G, Tumor Site: Type of Lesion: ADRENAL MEDULLA: BENIGN PHEOCHROMOCYTOMA, BENIGN OR MALIGNANT PHEOCHROMOCYTOMA, LUNG: ALVEOLAR/BRONCHIOLAR ADENOMA, ALVE): active; positive

NCCNc1cccc2ccccc12
carcinogen call (Species: MOUSE, Strain/Sex: B6C3F1/FEMALE, Route: ORAL, Dose: 0, 0.2, 0.3% OF DIET, TWA FOR HIGH DOSE, Dose: 0, 0.2, 0.3% OF DIET, TWA FOR HIGH DOSE): inactive; negative
carcinogen call (Species: MOUSE, Strain/Sex: B6C3F1/MALE, Route: ORAL, Dose: 0, 0.05, 0.1% OF DIET, Dose: 0, 0.05, 0.1% OF DIET): inactive; negative
carcinogen call (Species: RAT, Strain/Sex: F344/FEMALE, Route: ORAL, Dose: 0, 0.05, 0.1% OF DIET, Dose: 0, 0.05, 0.1% OF DIET): inactive; negative
carcinogen call (Species: RAT, Strain/Sex: F344/MALE, Route: ORAL, Dose: 0, 0.05, 0.1% OF DIET, Dose: 0, 0.05, 0.1% OF DIET): inactive; negative

O=[N+]([O-])c1cc2ccc3cccc4ccc(c1)c2c34
carcinogen call (Species: RAT, Strain/Sex: STRAIN-CD/FEMALE, Route: INJECTION, Dose: 0, 0.1 ML IN 20.3 UMOL/ML DMSO INJECTED INTO MAMMARY TISSUE OF THE 3 LEFT THORACIC NIPPLES FOLLOWED THE NEXT D BY SIMILA): inactive; negative
carcinogen call (Species: RAT, Strain/Sex: STRAIN-CD/FEMALE, Route: INJECTION, Dose: 0, 0.1 ML OF A 20.3 UMOL/ML SOLUTION IN DMSO INJECTED INTO MAMMARY TISSUE UNDERLYING 3 LEFT THORACIC NIPPLES THE FOLLOWI): inactive; negative
carcinogen call (Species: RAT, Strain/Sex: STRAIN-CD/FEMALE, Route: INTRAPERITONEAL, Dose: 0, 67 UMOL/KG BW IN DMSO 3/WK FOR 4 WK (STUDY DURATION: 61 WK), Tumor Site: Type of Lesion: HEMATOPOIETIC SYSTEM: LEUKEMIA, LYMPHOMA): active; positive
carcinogen call (Species: RAT, Strain/Sex: STRAIN-CD/FEMALE, Route: INTRAPERITONEAL, Dose: 0, 67 UMOL/KG/BW IN 25 UMOL/ML DMSO 3/WK FOR 4 WK (TOTAL DOSE: 0; 119 UMOL) ADMINISTERED TO WEANLING RATS (STUDY DURATIO, Dose: 0, 67 UMOL/KG/BW IN 25 UMOL/ML DMSO 3/WK FOR 4 WK (TOTAL DOSE: 0; 119 UMOL) ADMINISTERED TO WEANLING RATS (STUDY DURATIO, Tumor Site: Type of Lesion: HEMATOPOIETIC SYSTEM: LEUKEMIA OR LYMPHOMA): active; positive

COC(=O)N(C(=O)N1CO[C@@]2(C(=O)OC)Cc3cc(Cl)ccc3C2=N1)c1ccc(OC(F)(F)F)cc1
carcinogen call (Species: Mouse, Strain/Sex: Crl:CD-1(ICR)BR/Female (70/Group), Route: Oral, Dose: 0, 20, 100, 125/150/200 ppm for 18 mo, study duration 18 mo, Dose: 0, 20, 100, 125/150/200 ppm for 18 mo, study duration 18 mo): inactive; negative
carcinogen call (Species: Mouse, Strain/Sex: Crl:CD-1(ICR)BR/Male (70/Group), Route: Oral, Dose: 0, 20, 100, 125/150/200 ppm for 18 mo, study duration 18 mo, Dose: 0, 20, 100, 125/150/200 ppm for 18 mo, study duration 18 mo): inactive; negative

CCCCNC(=O)OCC#CI
carcinogen call (Species: Mouse, Strain/Sex: CD-1/Female (50/Group), Route: Oral, Dose: 0, 20, 50, 150 mg/kg/day of 97% 3-iodo-2-propynyl butyl carbamate in diet for 78 wk, study duration 78 wk, Dose: 0, 20, 50, 150 mg/kg/day of 97% 3-iodo-2-propynyl butyl carbamate in diet for 78 wk, study duration 78 wk): inactive; negative
carcinogen call (Species: Mouse, Strain/Sex: CD-1/Male (50/Group), Route: Oral, Dose: 0, 20, 50, 150 mg/kg/day of 97% 3-iodo-2-propynyl butyl carbamate in diet for 78 wk, study duration 78 wk, Dose: 0, 20, 50, 150 mg/kg/day of 97% 3-iodo-2-propynyl butyl carbamate in diet for 78 wk, study duration 78 wk): inactive; negative
carcinogen call (Species: Rat, Strain/Sex: Sprague-Dawley/Female (50/group), Route: Oral, Dose: 0, 20, 40, 80 mg/kg/day of 97% 3-iodo-2-propynyl butyl carbamate in diet for 104 wk, study duration 104 wk, Dose: 0, 20, 40, 80 mg/kg/day of 97% 3-iodo-2-propynyl butyl carbamate in diet for 104 wk, study duration 104 wk): inactive; negative
carcinogen call (Species: Rat, Strain/Sex: Sprague-Dawley/Male (50/group), Route: Oral, Dose: 0, 20, 40, 80 mg/kg/day of 97% 3-iodo-2-propynyl butyl carbamate in diet for 104 wk, study duration 104 wk, Dose: 0, 20, 40, 80 mg/kg/day of 97% 3-iodo-2-propynyl butyl carbamate in diet for 104 wk, study duration 104 wk): inactive; negative
